This passage reports melting point results from patent US7368578B2, “Five-membered heterocyclic compounds” (Takeda Pharmaceutical Company Limited, priority 2002, dated 2008).

What is called melting point is the temperature of the solid-liquid transition. Molecule `CCOC(=O)/C=C/c1cn(CC)nc1OCc1ccc(OCc2nc(-c3ccco3)oc2C)c(OC)c1` [Example 168, ethyl (2E)-3-{1-ethyl-3-[(4-{[2-(2-furyl)-5-methyl-1,3-oxazol-4-yl]methoxy}-3-methoxybenzyl)oxy]-1H-pyrazol-4-yl}-2-propenoate] gave a melting point of 149 to 150 °C. Regarding `CCOC(=O)c1cn(C)nc1OCc1ccc(OCc2nc(-c3ccco3)oc2C)c(OC)c1` [Example 171, ethyl 3-[(4-{[2-(2-furyl)-5-methyl-1,3-oxazol-4-yl]methoxy}-3-methoxybenzyl)oxy]-1-methyl-1H-pyrazole-4-carboxylate], the melting point was in the range of 117 to 118 °C.

As for `CCOC(=O)c1cn(CC)nc1OCc1ccc(OCc2nc(-c3ccco3)oc2C)c(OC)c1` [Example 172, ethyl 1-ethyl-3-[(4-{[2-(2-furyl)-5-methyl-1,3-oxazol-4-yl]methoxy}-3-methoxybenzyl)oxy]-1H-pyrazole-4-carboxylate], the melting point is 114 to 115 °C. As for `COc1cc(COc2nn(CCO)cc2CO)ccc1OCc1nc(-c2ccco2)oc1C` [Example 176, 2-[3-[(4-{[2-(2-furyl)-5-methyl-1,3-oxazol-4-yl]methoxy}-3-methoxybenzyl)oxy]-4-(hydroxymethyl)-1H-pyrazol-1-yl]ethanol], the figure is 120 to 122 °C; as for `COc1cc(COc2nn(C)cc2C=O)ccc1OCc1nc(-c2ccco2)oc1C` [Example 177, 3-[(4-{[2-(2-furyl)-5-methyl-1,3-oxazol-4-yl]methoxy}-3-methoxybenzyl)oxy]-1-methyl-1H-pyrazole-4-carbaldehyde], 155 to 156 °C; as for `CCn1cc(C=O)c(OCc2ccc(OCc3nc(-c4ccco4)oc3C)c(OC)c2)n1` [Example 178, 1-ethyl-3-[(4-{[2-(2-furyl)-5-methyl-1,3-oxazol-4-yl]methoxy}-3-methoxybenzyl)oxy]-1H-pyrazole-4-carbaldehyde], 103 to 104 °C.

In the case of `COc1cc(COc2nn(CCO)cc2C=O)ccc1OCc1nc(-c2ccco2)oc1C` [Example 179, 3-[(4-{[2-(2-furyl)-5-methyl-1,3-oxazol-4-yl]methoxy}-3-methoxybenzyl)oxy]-1-(2-hydroxyethyl)-1H-pyrazole-4-carbaldehyde], the melting point was in the range of 149 to 150 °C. Under `COc1cc(COc2nn(-c3ccccc3)cc2/C=C/c2cncn2C)ccc1OCc1nc(-c2ccco2)oc1C` [Example 181, 2-(2-furyl)-4-({2-methoxy-4-[({4-[(E)-2-(1-methyl-1H-imidazol-5-yl)ethenyl]-1-phenyl-1H-pyrazol-3-yl}oxy)methyl]phenoxy}methyl)-5-methyl-1,3-oxazole] stands 144 to 145 °C. With `CCn1cncc1/C=C/c1cn(-c2ccccc2)nc1OCc1ccc(OCc2nc(-c3ccco3)oc2C)c(OC)c1` [Example 182, 4-({4-[({4-[(E)-2-(1-ethyl-1H-imidazol-5-yl)ethenyl]-1-phenyl-1H-pyrazol-3-yl}oxy)methyl]-2-methoxyphenoxy}methyl)-2-(2-furyl)-5-methyl-1,3-oxazole], the melting point lay within 130 to 132 °C. Under `COc1cc(COc2nn(-c3ccccc3)cc2/C=C/C(N)=S)ccc1OCc1nc(-c2ccco2)oc1C` [Example 184, (2E)-3-{3-[(4-{[2-(2-furyl)-5-methyl-1,3-oxazol-4-yl]methoxy}-3-methoxybenzyl)oxy]-1-phenyl-1H-pyrazol-4-yl}-2-propenethioamide] stands 129 to 131 °C; under `COc1cc(COc2nn(-c3ccccc3)cc2/C=C/c2nc(C)cs2)ccc1OCc1nc(-c2ccco2)oc1C` [Example 185, 2-(2-furyl)-4-({2-methoxy-4-[({4-[(E)-2-(4-methyl-1,3-thiazol-2-yl)ethenyl]-1-phenyl-1H-pyrazol-3-yl}oxy)methyl]phenoxy}methyl)-5-methyl-1,3-oxazole], 130 to 131 °C. `CCOC(=O)c1csc(/C=C/c2cn(-c3ccccc3)nc2OCc2ccc(OCc3nc(-c4ccco4)oc3C)c(OC)c2)n1` [Example 186, ethyl 2-((E)-2-{3-[(4-{[2-(2-furyl)-5-methyl-1,3-oxazol-4-yl]methoxy}-3-methoxybenzyl)oxy]-1-phenyl-1H-pyrazol-4-yl}ethenyl)-1,3-thiazole-4-carboxylate] showed a melting point of 156 to 157 °C. `COc1cc(COc2nn(-c3ccccc3)cc2/C=C/c2nc(C(=O)O)cs2)ccc1OCc1nc(-c2ccco2)oc1C` [Example 187, 2-((E)-2-{3-[(4-{[2-(2-furyl)-5-methyl-1,3-oxazol-4-yl]methoxy}-3-methoxybenzyl)oxy]-1-phenyl-1H-pyrazol-4-yl}ethenyl)-1,3-thiazole-4-carboxylic acid]: the melting point was in the range of 170 to 172 °C. Under `COc1cc(COc2nn(-c3ccccc3)cc2/C=C/c2nnc(C)[nH]2)ccc1OCc1nc(-c2ccco2)oc1C` [Example 188, 3-((E)-2-{3-[(4-{[2-(2-furyl)-5-methyl-1,3-oxazol-4-yl]methoxy}-3-methoxybenzyl)oxy]-1-phenyl-1H-pyrazol-4-yl}ethenyl)-5-methyl-4H-1,2,4-triazole] stands 165 to 166 °C; under `COc1cc(COc2nn(-c3ccccc3)cc2/C=C/C(=O)NNC(C)=O)ccc1OCc1nc(-c2ccco2)oc1C` [Example 189, (2E)-N′-acetyl-3-{3-[(4-{[2-(2-furyl)-5-methyl-1,3-oxazol-4-yl]methoxy}-3-methoxybenzyl)oxy]-1-phenyl-1H-pyrazol-4-yl}-2-propenohydrazide], 221 to 222 °C; under `CCc1nc(/C=C\c2cn(-c3ccccc3)nc2OCc2ccc(OCc3csc(N4CCCCC4)n3)c(OC)c2)cs1` [Example 193 (Z form), 1-[4-({4-[({4-[(Z)-2-(2-ethyl-1,3-thiazol-4-yl)ethenyl]-1-phenyl-1H-pyrazol-3-yl}oxy)methyl]-2-methoxyphenoxy}methyl)-1,3-thiazol-2-yl]piperidine], 93 to 94 °C. As for `COc1cc(COc2nn(-c3ccccc3)cc2C=O)ccc1OCc1csc(N2CCCCC2)n1` [Example 196, 3-({3-methoxy-4-[(2-piperidin-1-yl-1,3-thiazol-4-yl)methoxy]benzyl}oxy)-1-phenyl-1H-pyrazole-4-carbaldehyde], the figure is 123 to 124 °C.

For the molecule `COc1cc(COc2nn(-c3ccccc3)cc2C=O)ccc1OCc1csc(N2CCOCC2)n1` [Example 197, 3-({3-methoxy-4-[(2-morpholin-4-yl-1,3-thiazol-4-yl)methoxy]benzyl}oxy)-1-phenyl-1H-pyrazole-4-carbaldehyde], the melting point fell in the range of 128 to 129 °C. Under `COc1cc(COc2nn(-c3ccccc3)cc2C=O)ccc1OCc1nc(N2CCCCC2)sc1C` [Example 198, 3-({3-methoxy-4-[(5-methyl-2-piperidin-1-yl-1,3-thiazol-4-yl)methoxy]benzyl}oxy)-1-phenyl-1H-pyrazole-4-carbaldehyde] stands 180 to 181 °C; under `CCOC(=O)c1cn(Cc2cccnc2)nc1OCc1ccc(OCc2nc(-c3ccco3)oc2C)c(OC)c1` [Example 199, ethyl 3-[(4-{[2-(2-furyl)-5-methyl-1,3-oxazol-4-yl]methoxy}-3-methoxybenzyl)oxy]-1-(pyridin-3-ylmethyl)-1H-pyrazole-4-carboxylate], 131 to 132 °C. Under `COc1cc(COc2nn(Cc3cccnc3)cc2CO)ccc1OCc1nc(-c2ccco2)oc1C` [Example 200, [3-[(4-{[2-(2-furyl)-5-methyl-1,3-oxazol-4-yl]methoxy}-3-methoxybenzyl)oxy]-1-(pyridin-3-ylmethyl)-1H-pyrazol-4-yl]methanol] stands 90 to 91 °C. As for `COC(=O)c1ccccc1-c1nc(COc2ccc(COc3nn(-c4ccccc4)cc3C=O)cc2OC)c(C)o1` [Example 207, methyl 2-{4-[(4-{[(4-formyl-1-phenyl-1H-pyrazol-3-yl)oxy]methyl}-2-methoxyphenoxy)methyl]-5-methyl-1,3-oxazol-2-yl}benzoate], the figure is 134 to 135 °C; as for `COC(=O)c1cccc(-c2nc(COc3ccc(CON4CC(C=O)=CN4c4ccccc4)cc3OC)c(C)o2)c1` [Example 208, methyl 3-{4-[(4-{[(4-formyl-1-phenyl-1H-pyrazol-2-yl)oxy]methyl}-2-methoxyphenoxy)methyl]-5-methyl-1,3-oxazol-2-yl}benzoate], 164 to 165 °C.

For `COC(=O)c1ccc(-c2nc(COc3ccc(COc4nn(-c5ccccc5)cc4C=O)cc3OC)c(C)o2)cc1` [Example 209, methyl 4-{4-[(4-{[(4-formyl-1-phenyl-1H-pyrazol-3-yl)oxy]methyl}-2-methoxyphenoxy)methyl]-5-methyl-1,3-oxazol-2-yl}benzoate], the melting point was 190 to 191 °C. As for `COc1cc(COc2nn(-c3ccccc3)cc2C=O)ccc1OCc1nc(-c2ccccc2)sc1C` [Example 213, 3-({3-methoxy-4-[(5-methyl-2-phenyl-1,3-thiazol-4-yl)methoxy]benzyl}oxy)-1-phenyl-1H-pyrazole-4-carbaldehyde], the figure is 164 to 165 °C; as for `COc1cc(COc2nn(-c3ccccc3)cc2C=O)ccc1OCc1coc(-c2ccco2)n1` [Example 218, 3-[(4-{[2-(2-furyl)-1,3-oxazol-4-yl]methoxy}-3-methoxybenzyl)oxy]-1-phenyl-1H-pyrazole-4-carbaldehyde], 162 to 163 °C. For the molecule `COc1cc(COc2nn(-c3ccccc3)cc2C=O)ccc1OCc1sc(-c2ccccc2)nc1C` [Example 219, 3-({3-methoxy-4-[(4-methyl-2-phenyl-1,3-thiazol-5-yl)methoxy]benzyl}oxy)-1-phenyl-1H-pyrazole-4-carbaldehyde], the melting point was 171 to 172 °C. Under `COc1cc(COc2nn(-c3ccccc3)cc2C=O)ccc1OCc1cn(-c2ccccn2)nc1C` [Example 220, 3-({3-methoxy-4-[(3-methyl-1-pyridin-2-yl-1H-pyrazol-4-yl)methoxy]benzyl}oxy)-1-phenyl-1H-pyrazole-4-carbaldehyde] stands 179 to 180 °C; under `COc1cc(COc2nn(-c3ccccc3)cc2C=O)ccc1OCc1nc(-c2ccccc2)cn1C` [Example 221, 3-({3-methoxy-4-[(1-methyl-4-phenyl-1H-imidazol-2-yl)methoxy]benzyl}oxy)-1-phenyl-1H-pyrazole-4-carbaldehyde], 126 to 127 °C.
